Reference: patent EP2193713A1, “Method for fighting animal pests without damaging pollinating insects” (Bayer CropScience AG, priority 2008, dated 2010)
Read-outs that look alike come from different tables or passages of the source.

What was measured:
Format in all cases: in vivo
Apis mellifera [1] = assay: Tunnel test / spray application / bees: foraging activity
Excerpt: (§1) Der Test wurde gemäß EPPO (European Plant Protection Organisation) Leitlinie 170 wie folgt durchgeführt:
Während einer Minute werden in einem abgegrenzten Bereich von 2 x 1 m^2 die Bienen gezählt, die auf Blüten absitzen. Tabelle 3 (siehe auch Figur 3)

Apis mellifera [2] = conditions: for Zahl toter Arbeiterbienen: 20 mg a.s./pl.
Excerpt: (§2) Die Mortalität von Arbeiterbienen vor dem Bienenstock wird mittels einer Falle für tote Bienen (dead bee trap) bestimmt. Die Falle besteht aus Maschendraht und ist vor dem Bienenstock angebracht. Einzelne, lebende Bienen können die Maschen des Drahts passieren, der Transport toter Bienen durch die Maschen ist nicht möglich, weswegen tote Bienen sich in der Falle ansammeln. Tabelle 1 (siehe auch Figur 1)

Apis mellifera [3] = test system: Apis mellifera
Excerpt: as §1, §2

Apis mellifera [4] = assay: Tunnel test / spray application / bees: acute mortality of pupae in front of the hive
Excerpt: as §1
Tabelle 2 (siehe auch Figur 2)

Apis mellifera [5] = assay: Tent test / drench application / bees: foraging activity; conditions: for Aktivität der Nahrungssuche, Zahl der Bienen / min / 4 m^2: 20 mg a.s./pl.
Excerpt: Der Test wurde wie folgt durchgeführt:

Bombus terrestris [6] = assay: Tent test / drench application / bumblebees: flight activity at the hive; conditions: for Flugaktivität am Stock, Zahl der Hummeln / 10 min: 20 mg a.s./pl.
Protocol: (§3) Der Versuch wurde wie folgt durchgeführt:
Die Zahl der Hummeln, die im Zeitraum von 10 min in den Stock geflogen sind oder diesen verlassen haben wurde bestimmt. Tabelle 7 (siehe auch Figur 7)

Bombus terrestris [7] = assay: Tent test / drench application / bumblebees: pollination activity on tomato; conditions: for Zahl der Blüten: markierte Blüten / Zahl der Blüten: offene Blüten: 20 mg a.s./pl.
Excerpt: as §3
Bei Tomaten kommt es durch den Besuch von Hummeln zu einer Farbveränderung der Staubgefäße (markierte Blüten). Es wurde die Zahl offener und markierter Blüten bestimmt. Tabelle 8 (siehe auch Figur 8)

[8] = 75 g a.s./ha, -3 DAA (before application)
[9] = 150 g a.s./ha, -3 DAA (before application)
[10] = 75 g a.s./ha, 0 DAA c (17:15 Uhr)
[11] = 150 g a.s./ha, 0 DAA c (17:15 Uhr)
[12] = result in words, 20 mg a.s. / Pflanze, 2 applications (Tag 0 und Tag 14)

SMILES: O=C1C=C(N(Cc2ccc(Cl)nc2)CC(F)F)CO1 [I-5, 4-{[(6-Chlorpyrid-3-yl)methyl](2,2-difluorethyl)amino}furan-2(5H)-on]
- Aktivität der Nahrungssuche, Zahl der Bienen / min / m^2 (Apis mellifera [1]; 75 g a.s./ha, 0 DAA a (09:30 Uhr)): 25,5 Bienen / min / m^2
- Aktivität der Nahrungssuche, Zahl der Bienen / min / m^2 (Apis mellifera [1]; 75 g a.s./ha, 0 DAA c (14:15 Uhr)): 41 Bienen / min / m^2
- Aktivität der Nahrungssuche, Zahl der Bienen / min / m^2 (Apis mellifera [1]; 75 g a.s./ha, 0 DAA e (17:15 Uhr)): 42,7 Bienen / min / m^2
- Aktivität der Nahrungssuche, Zahl der Bienen / min / m^2 (Apis mellifera [1]; 75 g a.s./ha, 1 DAA b (15:30 Uhr)): 18,8 Bienen / min / m^2
- Aktivität der Nahrungssuche, Zahl der Bienen / min / m^2 (Apis mellifera [1]; 75 g a.s./ha, 2 DAA): 33,3 Bienen / min / m^2
- Aktivität der Nahrungssuche, Zahl der Bienen / min / m^2 (Apis mellifera [1]; 75 g a.s./ha, 3 DAA): 40,3 Bienen / min / m^2
- Aktivität der Nahrungssuche, Zahl der Bienen / min / m^2 (Apis mellifera [1]; 75 g a.s./ha, 6 DAA): 37,8 Bienen / min / m^2
- Aktivität der Nahrungssuche, Zahl der Bienen / min / m^2 (Apis mellifera [1]; 75 g a.s./ha, -1 DAA (before application)): 27,3 Bienen / min / m^2
- Aktivität der Nahrungssuche, Zahl der Bienen / min / m^2 (Apis mellifera [1]; 75 g a.s./ha, -2 DAA (before application)): 34,8 Bienen / min / m^2
- Aktivität der Nahrungssuche, Zahl der Bienen / min / m^2 (Apis mellifera [1]; [8]): 26,5 Bienen / min / m^2
- Aktivität der Nahrungssuche, Zahl der Bienen / min / m^2 (Apis mellifera [1]; 150 g a.s./ha, 0 DAA a (09:30 Uhr)): 28,3 Bienen / min / m^2
- Aktivität der Nahrungssuche, Zahl der Bienen / min / m^2 (Apis mellifera [1]; 150 g a.s./ha, 0 DAA c (14:15 Uhr)): 40,2 Bienen / min / m^2
- Aktivität der Nahrungssuche, Zahl der Bienen / min / m^2 (Apis mellifera [1]; 150 g a.s./ha, 0 DAA e (17:15 Uhr)): 39 Bienen / min / m^2
- Aktivität der Nahrungssuche, Zahl der Bienen / min / m^2 (Apis mellifera [1]; 150 g a.s./ha, 1 DAA b (15:30 Uhr)): 19,2 Bienen / min / m^2
- Aktivität der Nahrungssuche, Zahl der Bienen / min / m^2 (Apis mellifera [1]; 150 g a.s./ha, 2 DAA): 35,7 Bienen / min / m^2
- Aktivität der Nahrungssuche, Zahl der Bienen / min / m^2 (Apis mellifera [1]; 150 g a.s./ha, 3 DAA): 39,3 Bienen / min / m^2
- Aktivität der Nahrungssuche, Zahl der Bienen / min / m^2 (Apis mellifera [1]; 150 g a.s./ha, 6 DAA): 37,5 Bienen / min / m^2
- Aktivität der Nahrungssuche, Zahl der Bienen / min / m^2 (Apis mellifera [1]; 150 g a.s./ha, -1 DAA (before application)): 26,3 Bienen / min / m^2
- Aktivität der Nahrungssuche, Zahl der Bienen / min / m^2 (Apis mellifera [1]; 150 g a.s./ha, -2 DAA (before application)): 34,2 Bienen / min / m^2
- Aktivität der Nahrungssuche, Zahl der Bienen / min / m^2 (Apis mellifera [1]; [9]): 27 Bienen / min / m^2
- Aktivität der Nahrungssuche (Apis mellifera [1]; result in words, tunnel test, spray, I-5 75 und 150 g a.s./ha, Thiamethoxam 50 g a.s./ha directly after application): keine Änderung
- Zahl toter Arbeiterbienen (Apis mellifera [2]; 6 DAA a (9:30 Uhr)): 8
- Zahl toter Arbeiterbienen (Apis mellifera [2]; 6 DAA b (14:30 Uhr)): 2
- Zahl toter Arbeiterbienen (Apis mellifera [2]; 7 DAA): 8
- Zahl toter Arbeiterbienen (Apis mellifera [2]; 8 DAA): 0
- Zahl toter Arbeiterbienen (Apis mellifera [2]; 9 DAA): 0
- Zahl toter Arbeiterbienen (Apis mellifera [2]; 10 DAA): 7
- Zahl toter Arbeiterbienen (Apis mellifera [2]; 11 DAA): 2
- Zahl toter Arbeiterbienen (Apis mellifera [2]; 14 DAA): 1
- Zahl toter Arbeiterbienen (Apis mellifera [2]; 16 DAA): 1
- Zahl toter Arbeiterbienen (Apis mellifera [2]; 18 DAA): 2
- Mortalität von Arbeiterbienen vor dem Bienenstock (Apis mellifera [2]; result in words, tent test, drench, I-5 20 mg a.s. / Pflanze, Thiamethoxam 10 mg a.s. / Pflanze): keine Mortalität
- Zahl toter Arbeiterbienen (Apis mellifera [3]; 75 g a.s./ha, 0 DAA b (15:15 Uhr)): 0
- Zahl toter Arbeiterbienen (Apis mellifera [3]; [10]): 0,7
- Zahl toter Arbeiterbienen (Apis mellifera [3]; 75 g a.s./ha, 1 DAA): 0
- Zahl toter Arbeiterbienen (Apis mellifera [3]; 75 g a.s./ha, 2 DAA): 0,3
- Zahl toter Arbeiterbienen (Apis mellifera [3]; 75 g a.s./ha, 3 DAA): 0,3
- Zahl toter Arbeiterbienen (Apis mellifera [3]; 75 g a.s./ha, 4 DAA): 3,7
- Zahl toter Arbeiterbienen (Apis mellifera [3]; 75 g a.s./ha, 5 DAA): 0,3
- Zahl toter Arbeiterbienen (Apis mellifera [3]; 75 g a.s./ha, 6 DAA): 4,3
- Zahl toter Arbeiterbienen (Apis mellifera [3]; 75 g a.s./ha, 11 DAA): 0
- Zahl toter Arbeiterbienen (Apis mellifera [3]; [8]): 0,3
- Zahl toter Arbeiterbienen (Apis mellifera [3]; 150 g a.s./ha, 0 DAA b (15:15 Uhr)): 1,3
- Zahl toter Arbeiterbienen (Apis mellifera [3]; [11]): 0,3
- Zahl toter Arbeiterbienen (Apis mellifera [3]; 150 g a.s./ha, 1 DAA): 0
- Zahl toter Arbeiterbienen (Apis mellifera [3]; 150 g a.s./ha, 2 DAA): 0
- Zahl toter Arbeiterbienen (Apis mellifera [3]; 150 g a.s./ha, 3 DAA): 0
- Zahl toter Arbeiterbienen (Apis mellifera [3]; 150 g a.s./ha, 4 DAA): 1,7
- Zahl toter Arbeiterbienen (Apis mellifera [3]; 150 g a.s./ha, 5 DAA): 0,7
- Zahl toter Arbeiterbienen (Apis mellifera [3]; 150 g a.s./ha, 6 DAA): 2
- Zahl toter Arbeiterbienen (Apis mellifera [3]; 150 g a.s./ha, 11 DAA): 1,7
- Zahl toter Arbeiterbienen (Apis mellifera [3]; [9]): 0,3
- Mortalität von Arbeiterbienen vor dem Bienenstock (Apis mellifera [3]; result in words, tunnel test, spray, I-5 75 und 150 g a.s./ha, Thiamethoxam 50 g a.s./ha): keine Mortalität
- Zahl toter Puppen (Apis mellifera [4]; [10]): 0
- Zahl toter Puppen (Apis mellifera [4]; 75 g a.s./ha, 1 DAA): 0
- Zahl toter Puppen (Apis mellifera [4]; 75 g a.s./ha, 2 DAA): 0,3
- Zahl toter Puppen (Apis mellifera [4]; 75 g a.s./ha, 5 DAA): 0
- Zahl toter Puppen (Apis mellifera [4]; 75 g a.s./ha, 6 DAA): 0
- Zahl toter Puppen (Apis mellifera [4]; 75 g a.s./ha, 11 DAA): 0,3
- Zahl toter Puppen (Apis mellifera [4]; 75 g a.s./ha, 14 DAA): 0
- Zahl toter Puppen (Apis mellifera [4]; 75 g a.s./ha, 18 DAA): 0
- Zahl toter Puppen (Apis mellifera [4]; 75 g a.s./ha, 21 DAA): 0
- Zahl toter Puppen (Apis mellifera [4]; 75 g a.s./ha, 25 DAA): 0
- Zahl toter Puppen (Apis mellifera [4]; [8]): 0
- Zahl toter Puppen (Apis mellifera [4]; [11]): 0
- Zahl toter Puppen (Apis mellifera [4]; 150 g a.s./ha, 1 DAA): 0
- Zahl toter Puppen (Apis mellifera [4]; 150 g a.s./ha, 2 DAA): 0
- Zahl toter Puppen (Apis mellifera [4]; 150 g a.s./ha, 5 DAA): 0
- Zahl toter Puppen (Apis mellifera [4]; 150 g a.s./ha, 6 DAA): 0
- Zahl toter Puppen (Apis mellifera [4]; 150 g a.s./ha, 11 DAA): 0
- Zahl toter Puppen (Apis mellifera [4]; 150 g a.s./ha, 14 DAA): 0,7
- Zahl toter Puppen (Apis mellifera [4]; 150 g a.s./ha, 18 DAA): 0
- Zahl toter Puppen (Apis mellifera [4]; 150 g a.s./ha, 21 DAA): 0
- Zahl toter Puppen (Apis mellifera [4]; 150 g a.s./ha, 25 DAA): 0
- Zahl toter Puppen (Apis mellifera [4]; [9]): 0
- Mortalität von Puppen vor dem Bienenstock (Apis mellifera [4]; result in words, tunnel test, spray, I-5 75 und 150 g a.s./ha, Fenoxycarb 150 g a.s./ha): keine Mortalität
- Aktivität der Nahrungssuche, Zahl der Bienen / min / 4 m^2 (Apis mellifera [5]; 5 DAA): 26 Bienen / min / 4 m^2
- Aktivität der Nahrungssuche, Zahl der Bienen / min / 4 m^2 (Apis mellifera [5]; 6 DAA b (14:30 Uhr)): 73 Bienen / min / 4 m^2
- Aktivität der Nahrungssuche, Zahl der Bienen / min / 4 m^2 (Apis mellifera [5]; 7 DAA): 21 Bienen / min / 4 m^2
- Aktivität der Nahrungssuche, Zahl der Bienen / min / 4 m^2 (Apis mellifera [5]; 8 DAA): 70 Bienen / min / 4 m^2
- Aktivität der Nahrungssuche, Zahl der Bienen / min / 4 m^2 (Apis mellifera [5]; 9 DAA): 41 Bienen / min / 4 m^2
- Aktivität der Nahrungssuche, Zahl der Bienen / min / 4 m^2 (Apis mellifera [5]; 11 DAA): 31 Bienen / min / 4 m^2
- Aktivität der Nahrungssuche, Zahl der Bienen / min / 4 m^2 (Apis mellifera [5]; 13 DAA): 86 Bienen / min / 4 m^2
- Aktivität der Nahrungssuche, Zahl der Bienen / min / 4 m^2 (Apis mellifera [5]; 15 DAA): 43 Bienen / min / 4 m^2
- Aktivität der Nahrungssuche, Zahl der Bienen / min / 4 m^2 (Apis mellifera [5]; 16 DAA): 51 Bienen / min / 4 m^2
- Aktivität der Nahrungssuche, Zahl der Bienen / min / 4 m^2 (Apis mellifera [5]; 17 DAA): 98 Bienen / min / 4 m^2
- Aktivität der Nahrungssuche, Zahl der Bienen / min / 4 m^2 (Apis mellifera [5]; 18 DAA): 71 Bienen / min / 4 m^2
- Aktivität der Nahrungssuche (Apis mellifera [5]; result in words, tent test, drench, I-5 20 mg a.s. / Pflanze, Thiamethoxam 10 mg a.s. / Pflanze (13 Tage nach Applikation)): keine Änderung
- Flugaktivität am Stock, Zahl der Hummeln / 10 min (Bombus terrestris [6]; 0 DAA): 9 Hummeln / 10 min
- Flugaktivität am Stock, Zahl der Hummeln / 10 min (Bombus terrestris [6]; 6 DAA after first application): 11 Hummeln / 10 min
- Flugaktivität am Stock, Zahl der Hummeln / 10 min (Bombus terrestris [6]; 8 DAA after first application): 15 Hummeln / 10 min
- Flugaktivität am Stock, Zahl der Hummeln / 10 min (Bombus terrestris [6]; 13 DAA after first application): 11 Hummeln / 10 min
- Flugaktivität am Stock, Zahl der Hummeln / 10 min (Bombus terrestris [6]; 20 DAA after first application): 12 Hummeln / 10 min
- Flugaktivität am Stock, Zahl der Hummeln / 10 min (Bombus terrestris [6]; 23 DAA after first application): 14 Hummeln / 10 min
- Flugaktivität am Stock, Zahl der Hummeln / 10 min (Bombus terrestris [6]; 27 DAA after first application): 11 Hummeln / 10 min
- Flugaktivität am Stock, Zahl der Hummeln / 10 min (Bombus terrestris [6]; 34 DAA after first application): 6 Hummeln / 10 min
- Flugaktivität am Stock, Zahl der Hummeln / 10 min (Bombus terrestris [6]; -1 DAA (before first application)): 13 Hummeln / 10 min
- Flugaktivität der Hummeln (Bombus terrestris [6]; [12]): keine Änderung
- Zahl der Blüten: markierte Blüten (Bombus terrestris [7]; DAA 13 after first application): 59,4
- Zahl der Blüten: offene Blüten (Bombus terrestris [7]; DAA 13 after first application): 67,3
- Zahl der Blüten: markierte Blüten (Bombus terrestris [7]; DAA 22 after first application): 53,7
- Zahl der Blüten: offene Blüten (Bombus terrestris [7]; DAA 22 after first application): 59,3
- Bestäubungsaktivität der Hummeln (Bombus terrestris [7]; [12]): keine Änderung
